Laboratory results reported in patent US11040029B2, “Methods for the administration of certain VMAT2 inhibitors” (Neurocrine Biosciences, Inc., priority 2017, dated 2021).
“Also recorded” adds a separate entry of the source. Read-outs that look alike come from different tables or passages of the source.

Experiments:
[1] = tested on: CYP2D6; experiment: Metabolic stability in human liver microsomes with/without quinidine
Protocol: (§1) Incubation volumes were 250 μL for liver microsomes and 100 μL for hepatocytes. The liver microsomal incubation mixtures contained potassium phosphate buffer (50 mM, pH 7.4) with an NADPH-generating system which consisted of NADP (1 mM), glucose-6-phosphate (5 mM), MgCl2 (3 mM), EDTA (1 mM) and glucose-6-phosphate dehydrogenase (1 Unit/mL) at the final concentrations indicated. The hepatocyte incubation was in KHB buffer. Cryopreserved human hepatocytes were thawed according to the supplier's instruction, and pooled from three female donors. […] Aliquots of supernatant fractions were analyzed by an LC/MS/MS method using an Acquity UPLC liquid chromatography system with an Acquity BEH C18, 1.7 μm (2.1×100 mm) column and the MassLynx 4.1 with QuanLynx data acquisition and processing software, each available from Waters Corp., Milford, Mass.
(§2) Dextromethorphan was used as a positive control. Briefly, the concentration-time data were fitted by nonlinear regression with the following equation: Ct/C0=e^−kt where Ct is the substrate concentration at time t and C0 is the initial concentration (1 μM) at time 0. In the calculations, the area ratio of the substrate peak to an internal standard peak is proportional to the analyte concentration and used for regression analysis to get the value of k. Then the in vivo intrinsic clearance (CLint) can be predicted using the equations below with an assumption that C0 is much lower than Km, a constant that is equal to the substrate concentration at which an enzyme reaction proceeds at half the maximum velocity.

[2] = as above; settings: both, human, microsomes, pH 7.4
Protocol: as §1, §2

[3] = tested on: CYP2D6; experiment: Metabolic stability in cryopreserved human hepatocytes with/without quinidine
Protocol: as §1, §2

[4] = as above; settings: female, human, hepatocytes
Protocol: as §1, §2

[5] = target: T1, human VMAT1 transporter (Homo sapiens, UniProt P54219); experiment: Uptake in cells expressing VMAT1; type: cell-based; settings: concentrations up to 10 μM
T1 construct: expressed in transfected cells
T1 sequence (P54219 1-525): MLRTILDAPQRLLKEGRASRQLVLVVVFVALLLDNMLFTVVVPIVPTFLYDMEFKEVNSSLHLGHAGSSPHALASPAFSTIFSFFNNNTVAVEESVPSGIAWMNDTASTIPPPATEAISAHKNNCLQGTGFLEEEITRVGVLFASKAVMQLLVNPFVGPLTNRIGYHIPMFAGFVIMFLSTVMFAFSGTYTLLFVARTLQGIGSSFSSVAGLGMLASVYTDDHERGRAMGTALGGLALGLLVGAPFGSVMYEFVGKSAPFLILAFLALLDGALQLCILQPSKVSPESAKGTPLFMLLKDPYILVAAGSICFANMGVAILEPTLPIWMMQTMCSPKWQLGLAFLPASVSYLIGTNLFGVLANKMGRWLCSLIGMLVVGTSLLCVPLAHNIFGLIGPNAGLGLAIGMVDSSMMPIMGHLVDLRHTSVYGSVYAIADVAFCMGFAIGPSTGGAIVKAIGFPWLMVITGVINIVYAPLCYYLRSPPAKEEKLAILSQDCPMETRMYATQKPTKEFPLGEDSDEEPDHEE

[6] = Plasma concentrations of circulating metabolites of VBZ; type: in vivo; settings: after VBZ
[7] = tested on: more than 80 targets (GPCRs, cell-surface monoamine transporters, ion channels including HERG); experiment: Cerep multi-target activity screen; type: binding; settings: broad panel screen
[8] = tested on: dopamine, serotonin and adrenergic receptor subtypes; experiment: Detailed radioligand binding assays, monoamine receptors; settings: for interaction with D1 and D2 receptors: radioligand binding assays and broad panel screen
[9] = tested on: CYP2D6; settings: both, human, microsomes, 1 μM, pH 7.4
Protocol: as §1, §2

[10] = tested on: CYP2D6, CYP1A1, CYP1A2, CYP1B1, CYP3A4 and CYP3A5; settings: 1 μM, pH 7.4
[11] = tested on: CYP2D6; experiment: in vitro; settings: both, human, microsomes, pH 7.4
Protocol: as §1, §2

[12] = in vitro; settings: both, human, microsomes, pH 7.4
Protocol: as §1, §2

[13] = tested on: CYP2D6; experiment: in vitro; settings: female, human, hepatocytes
Protocol: as §1, §2

[14] = in vitro; settings: female, human, hepatocytes
Protocol: as §1, §2

[15] = Healthy volunteer studies, coadministration of NBI-98854 with strong CYP2D6 inhibitors; type: in vivo, human; settings: NBI-98854 coadministered with strong CYP2D6 inhibitors; preliminary data
[16] = tested on: CYP2D6; settings: female, human, hepatocytes, 1 μM
Protocol: as §1, §2

[17] = Phase 3 clinical trial in tardive dyskinesia, plasma concentrations; type: in vivo, human; settings: valbenazine 40 or 80 mg once daily, Weeks 2, 4, 6
Protocol: A Phase 3 clinical trial for patients with tardive dyskinesia (TD) and a psychiatric diagnosis (i.e., schizophrenia/schizoaffective disorder, mood disorder) who received once-daily valbenazine 40 or 80 mg for 6 weeks was also conducted.
Plasma samples for determination of plasma valbenazine and [+]-α-HTBZ concentrations were obtained at Weeks 2, 4, and 6. Plasma valbenazine and [+]-α-HTBZ concentrations were determined using validated HPLC-MS/MS methods. PK parameters were determined using standard non-compartmental methods. Dose-normalized plasma concentrations of valbenazine and [+]-α-HTBZ at Weeks 2, 4, and 6 in the subgroup of patients prescribed concomitant potent CYP2D6 inhibitors (paroxetine, fluoxetine, duloxetine, sertraline, or bupropion) were compared by t-test to respective concentrations in patients not receiving a CYP2D6 inhibitor.

[18] = Prolactin release, in vivo surrogate measure
[19] = in vivo; cited from earlier work
[20] = with concomitant CYP2D6 inhibitors
[21] = without concomitant CYP2D6 inhibitors

Compound: COc1ccc2c(c1)[C@]13CCCC[C@@H]1[C@H](C2)N(C)CC3 [Dextromethorphan]
- CLint scaled at 1 μM ([1]; both, human, microsomes, pH 7.4): 8 mL/min/kg
- % Contribution by CYP2D6 ([1]; human liver microsomes): 84.0%
- inhibition of intrinsic clearance in the presence of quinidine ([1]; quinidine 3 μM, text summary for microsomes and hepatocytes): more than 80%
- CLint scaled at 1 μM [2]: 50 mL/min/kg
- CLint scaled at 1 μM ([3]; female, human, hepatocytes): 3.23 mL/min/kg
- % Contribution by CYP2D6 ([3]; human hepatocytes): 85.8%
- CLint scaled at 1 μM [4]: 22.6 mL/min/kg

Compound: COc1cc2c(cc1OC)[C@H]1C[C@@H](OC(=O)[C@@H](N)C(C)(C)O)[C@H](CC(C)C)CN1CC2 [NBI-136110]
- inhibition of uptake through VMAT1 [5]: no significant inhibitory activity; also recorded: no significant effect
- decline of plasma concentrations, half-life [6]: half-lives similar to VBZ
- affinity for more than 80 binding sites [7]: little to no affinity

Compound: COc1cc2c(cc1OC)[C@@H]1C[C@@H](O)[C@@H](CC(C)C)CN1CC2 [R,S,S-DHTBZ]
- interaction with D1 and D2 receptors [8]: interact with D1 and D2 receptors

Compound: COc1cc2c(cc1OC)[C@@H]1C[C@H](O)[C@@H](CC(C)C)CN1CC2 [S,S,S-DHTBZ]
- interaction with D1 and D2 receptors [8]: interact with D1 and D2 receptors

Compound: COc1cc2c(cc1OC)[C@H]1C[C@@H](O)[C@H](CC(C)C)CN1CC2 [R,R,R-DHTBZ, (2R,3R,11bR)-3-isobutyl-9,10-dimethoxy-1,3,4,6,7,11b-hexahydro-2H-pyrido[2,1-a]isoquinolin-2-ol]
- specificity for VMAT2 versus monoamine receptor subtypes [8]: high specificity
- inhibition of uptake through VMAT1 [5]: no significant inhibitory activity; also recorded: no significant effect
- % Contribution by CYP2D6 [9]: 62.6%
- enzymes catalyzing oxidative metabolism in human liver [10]: in part catalyzed by CYP2D6, with some contribution from CYP1A1, CYP1A2, CYP1B1, CYP3A4 and CYP3A5
- CLint scaled at 1 μM [11]: 3.9 mL/min/kg
- CLint scaled at 1 μM [12]: 10.4 mL/min/kg
- CLint scaled at 1 μM [13]: 4 mL/min/kg
- CLint scaled at 1 μM [14]: 8.8 mL/min/kg
- increase of area under the plasma concentration versus time curve (AUC) [15]: approximately 2 fold
- increase of maximum plasma concentration (Cmax) [15]: approximately 2 fold
- decline of plasma concentrations, half-life [6]: half-lives similar to VBZ
- affinity for more than 80 binding sites [7]: little to no affinity
- % Contribution by CYP2D6 [16]: 54.3%
- Mean (±SD) dose-normalized plasma concentration [17, 20]: 0.534 ± 0.321 ng/mL/mg
- Mean (±SD) dose-normalized plasma concentration [17, 21]: 0.513 ± 0.326 ng/mL/mg

Compound: COC(=O)[C@H]1[C@H]2C[C@@H]3c4[nH]c5cc(OC)ccc5c4CCN3C[C@H]2C[C@@H](OC(=O)c2cc(OC)c(OC)c(OC)c2)[C@@H]1OC [reserpine, reference compound]
- inhibition of uptake through VMAT1 [5]: substantially inhibited uptake through VMAT1

Compound: COc1cc2c(cc1OC)C1CC(=O)C(CC(C)C)CN1CC2 (stereo not drawn) [TBZ, tetrabenazine, reference compound]
- inhibition of uptake through VMAT1 [5]: no significant inhibitory activity; also recorded: no significant effect
- increase in serum prolactin levels [18]: increase in serum prolactin levels

Compound: COc1cc2c(cc1OC)[C@H]1C[C@@H](OC(=O)[C@@H](N)C(C)C)[C@H](CC(C)C)CN1CC2 [Valbenazine, (S)-2-amino-3-methyl-butyric acid (2R,3R,11bR)-3-isobutyl-9,10-dimethoxy-1,3,4,6,7,11b-hexahydro-2H-pyrido[2,1-a]isoquinolin-2-yl ester]
- inhibition of uptake through VMAT1 ([5]; listed as VBZ): no significant inhibitory activity; also recorded: no significant effect
- affinity for more than 80 binding sites [7]: little to no affinity
- Mean (±SD) dose-normalized plasma concentration [17, 20]: 3.375 ± 2.037 ng/mL/mg
- Mean (±SD) dose-normalized plasma concentration [17, 21]: 3.683 ± 2.360 ng/mL/mg

Compound: α-dihydrotetrabenazine
- increase of AUC [19]: ~3 fold
- increase of Cmax [19]: approximately 30%
